Reference: paper PMC6544338, “Comparative biophysical characterization: A screening tool for acetylcholinesterase inhibitors” (PLoS ONE, 2019)
Where a name gives a salt, the structure may show the parent alone. Read-outs that look alike come from different tables or passages of the source.

Key:
AChE [1] = settings: cited from earlier work
AChE [2] = molecular target: T1, AChE (Electrophorus electricus, UniProt O42275); assay: Far-UV circular dichroism of AChE with small molecules (secondary structure composition); settings: for Turns of AChE in presence of the molecule / α helix of AChE in presence of the molecule / Random of AChE in presence of the molecule / β sheets of AChE in presence of the molecule: single molecule; for Turns of AChE in presence of the molecule: AChE alone 0; for α helix of AChE in presence of the molecule: AChE alone 3.6±0.012; for Random of AChE in presence of the molecule: AChE alone 44.2±0.46; for β sheets of AChE in presence of the molecule: AChE alone 52.3±0.6; for change in secondary structure of AChE compared to control enzyme: CD, far-UV
T1 construct: purchased Sigma (St. Louis, MO, USA)
Description: Protein solutions 0.5 milligram per milliliter (mgml^-1) was prepared in 10 mM PBS at pH 7.7. Scans were performed at room temperature using 0.1 cm path length quartz cuvette with 8 s differential integration time at a scan rate of 100 nano meter per minute (nm min^-1). The CD spectrum of AChE enzyme individually and with different small molecules, also in combination was recorded. All spectra resulted from averaging three scans were corrected from the buffer blank. Results were expressed as molar ellipticity (°cm^2 dmol^-1) based on a mean amino acid residue weight (MRW) 110 Da for AChE. The molar ellipticity was determined as [θ obs] = {100 × (MRW) × θobs/cl}, where θ is the observed ellipticity in degrees at a given wavelength, c is the protein concentration in mgml^-1, and l is the path length in cm.
The relative percentages of the secondary structure elements were estimated in triplicates using Manager Suite software.

immobilized AChE [3] = molecular target: T2, immobilized AChE (Electrophorus electricus, UniProt O42275); assay: biochemical; assay type: binding; settings: for Kd / Ka1 / Kd1: 25°C
T2 construct: purchased Sigma (St. Louis, MO, USA)
Description: (§1) The protocol was followed with some modifications for enzyme immobilization, scouting and screening. SPR interactions were performed using a Biacore X100 optical biosensor (GE Healthcare Life Sciences, Bangalore, India) at 25°C. SPR analysis was carried out in PBS (200 mM, pH 7.7) from the analyte stock solutions, working solutions were diluted before passing on to the sensor surface. Data collection was done with the help of Biacore control software ver 2.0.2 Sets of experiments were carried out by monitoring change in the refractive index as a function of time under constant flow conditions. The relative amount of inhibitor bound to the AChE was determined by measuring the net increase in the refractive index over time compared to buffer as a control. During each run, there is an inline subtraction of the reference surface. Change is reported regarding response units (RU). The surface was washed with 5 cycles of running buffer (PBS) before next analytes.
(§2) As per pH scouting studies, AChE enzyme (100μg) was dissolved in 100 mM sodium acetate buffer pH 4.5 and was immobilized to the CM5 sensor chip by using the amine coupling method. The flow rate was kept constant during immobilization at 10 μlmin^-1, the surface of flow cell was activated by 1:1 mixture of 100 mM EDC and 100 mM NHS (both dissolved in water) for 7 min. AChE was injected for 7 min, and residual activated carboxymethyl groups were blocked on the sensor surface by 7 min injection of 1M ethanolamine, pH 8.5. In this particular study, flow cell 1 was blank immobilized (without protein) and used as a reference. Inline and double referencing was done for the buffer RU compensation.
(§3) Here the model describes this competitive situation and returns two sets of rate constants, one for each reaction taking into consideration two different analytes. The same buffer was used as running buffer. The constant flow rate was maintained throughout the kinetics (45 μlmin^-1), contact time and dissociation time was kept at 120 second (s). 10 mM glycine pH 3.0 for the time period of 30 s was used for regeneration. The experiments were carried at different concentrations of inhibitors.
(§4) The analysis of data was carried out with X100 evaluation software ver 2.0.2 and fitted to two state fit for individual molecules and for competitive experiments a heterogeneous analyte binding model.

[4] = molecular target: T3, acetylcholinesterase from Electrophorus electricus (Electric eel) (Electrophorus electricus, UniProt O42275); assay: Inhibition assay for acetylcholinesterase activity (modified Ellman, ATCI/DTNB, 412 nm); assay type: biochemical
T3 construct: purchased Sigma (St. Louis, MO, USA)
Description: The assay was performed with some modifications of Ellman et al (1961). […] The hydrolysis was monitored by the formation of yellow color (5-thio-2-nitrobenzoate anion) and the absorbance was measured at 412 nm by using spectrophotometer (UV-1800, Shimadzu, Japan).
The inhibitory activity assay was carried out with slight modifications. […] The inhibitory percentage of AChE was calculated as follows:
%inhibition = 100[A − B] − [C − D]/[A − B]
A is the OD without test substance, B is the OD without test substance and AChE, C is the OD with the test substance, D is the OD at 412 nm with the test substance and without AChE.
The relative percentage inhibition were estimated in triplicates and values were expressed as mean ± SEM (n = 3).

AChE [5] = molecular target: T1, AChE; assay: Fluorescence spectral studies of AChE incubated with molecules; settings: excitation 365 nm, control emission maxima […] nm, molecules at IC50 concentration, 10 min
Description: The fluorescence intensities were recorded using 0.5 mgml^-1 protein concentration with an excitation wavelength of 365 nm and an emission wavelength of 400–700 nm with slit widths of 20 nm using MY14410002 fluorescence spectrophotometer (Agilent Technologies, USA) at 25°C. Protein solutions of 0.5 mgml^-1 were prepared in 10 mM PBS at pH 7.7. Scans were performed at room temperature using a 1 cm path length quartz cuvette with 1 s differential integration time at a scan rate of 600 nm min^-1. […] The subsequent changes in fluorescence were measured at this wavelength.
Fig 21 a) Intrinsic fluorescence spectra of the AChE incubated with molecules. […] Scans were performed at 37°C using a 1 cm path length quartz cuvette with 1 s differential integration time at a scan rate of 600 nm min^-1. The excitation wavelength was 365 nm and emission wavelength was in the range of 400–700 nm. b) Intrinsic fluorescence spectra of the AChE incubated with molecules. […] Scans were performed at 37° C using a 1 cm path length quartz cuvette with 1 s differential integration time at a scan rate of 600 nm min^-1. The excitation wavelength was 365 nm and the emission wavelength was in the range of 400–700 nm.

immobilized AChE [6] = molecular target: T2, immobilized AChE; assay: biochemical; assay type: binding
Description: as §1, §2, §3, §4
Likewise, competitive experiments between different pairs was run by mixing 1:1 ratio of molecules and was fit to heterogeneous analyte model were studied. These experiments are helpful for determining the kinetics of a small molecule analyte in competition with other. Response contributions from both analytes are taken into account by considering molecular weight and concentrations of analytes. For competition binding experiments, pairing was done based on substrate-inhibitor and inhibitor-inhibitor interactions. […] Finally, naturally occurring crocin was also tested due to reports in the literature as a brain tonic for the Alzheimer's.

[7] = affinity fit, read-out: KD Affinity
[8] = two-state model, read-out: KD Kinetics
[9] = pair crocin (molecule 1) and ATCI (molecule 2), 1:1

T3 sequence (O42275 24-633): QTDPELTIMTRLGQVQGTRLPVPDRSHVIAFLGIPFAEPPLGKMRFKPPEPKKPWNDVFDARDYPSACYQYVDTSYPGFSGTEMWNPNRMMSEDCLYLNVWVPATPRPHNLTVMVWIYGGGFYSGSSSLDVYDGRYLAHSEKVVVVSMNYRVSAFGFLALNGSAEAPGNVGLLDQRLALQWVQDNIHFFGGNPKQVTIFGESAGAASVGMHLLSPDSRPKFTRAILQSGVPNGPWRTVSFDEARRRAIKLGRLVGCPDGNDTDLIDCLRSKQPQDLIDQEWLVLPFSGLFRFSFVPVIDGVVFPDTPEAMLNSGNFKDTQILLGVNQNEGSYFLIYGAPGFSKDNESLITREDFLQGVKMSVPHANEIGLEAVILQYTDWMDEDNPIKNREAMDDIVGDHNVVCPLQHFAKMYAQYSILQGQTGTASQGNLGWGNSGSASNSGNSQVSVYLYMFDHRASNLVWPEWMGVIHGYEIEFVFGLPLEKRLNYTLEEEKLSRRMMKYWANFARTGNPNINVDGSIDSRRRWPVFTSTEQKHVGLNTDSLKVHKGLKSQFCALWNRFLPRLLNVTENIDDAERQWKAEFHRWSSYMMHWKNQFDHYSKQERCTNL
T2 sequence (O42275 24-633): as above
T1 sequence (O42275 24-633): as above

| Compound | Turns of AChE in presence of the molecule (AChE [2]) [%] | α helix of AChE in presence of the molecule (AChE [2]) [%] | Random of AChE in presence of the molecule (AChE [2]) [%] | β sheets of AChE in presence of the molecule (AChE [2]) [%] | Ka2 (immobilized AChE [3]) | Kd2 (immobilized AChE [3]) | Kd (immobilized AChE [3]; [7]) [µM] | Ka1 (immobilized AChE [3]; two-state model) [M⁻¹ s⁻¹] | Kd1 (immobilized AChE [3]; two-state model) [s⁻¹] | Kd (immobilized AChE [3]; [8]) [µM] | IC50 [4] [µM] | change in fluorescence emission of AChE compared to control enzyme (AChE [5]) | change in secondary structure of AChE compared to control enzyme (AChE [2]) | also measured |
| --- | --- | --- | --- | --- | --- | --- | --- | --- | --- | --- | --- | --- | --- | --- |
| CC1=C(C=O)C(C)(C)CC=C1 [safranal] | – | – | – | – | – | – | – | – | – | – | – | – | – | concentration showing maximum inhibition of AChE (AChE [1]): 21.09 ± 0.17 µM |
| CC(/C=C/C=C(\C)C(=O)O[C@@H]1O[C@H](CO[C@@H]2O[C@H](CO)[C@@H](O)[C@H](O)[C@H]2O)[C@@H](O)[C@H](O)[C@H]1O)=C\C=C\C=C(C)\C=C\C=C(/C)C(=O)O[C@@H]1O[C@H](CO[C@@H]2O[C@H](CO)[C@@H](O)[C@H](O)[C@H]2O)[C@@H](O)[C@H](O)[C@H]1O [Crocin, crocin] | 0 | 5.7±0.042 | 43.8±0.41 | 50.5±0.74 | 0.003559±9.4×10^−5 1/s | 0.005325±1.5×10^−4 1/s | 475 | 601700 ± 6700 | 472 ± 5.2 | 470 | 920 ± 230 | redshift | – | Kd (immobilized AChE [6]): 6020 µM; Molecule 2 ka2 (immobilized AChE [6]): 1.010 ± 0.11 M⁻¹ s⁻¹; Molecule 2 kd2 (immobilized AChE [6]): 0.006083±1.1×10^−4 1/s; Molecule 1 ka1 (immobilized AChE [6]; [9]): 3281±5.8×10^2 1/Ms; Molecule 1 kd1 (immobilized AChE [6]; [9]): 0.01684±8.5×10^−4 1/s |
| O.Oc1cc(O)c2c(c1)O[C@H](c1ccc(O)c(O)c1)[C@@H](O)C2 [Catechin hydrate, catechin hydrate] | 0 | 10±0.06 | 41±0.29 | 49±0.67 | 0.0158±7.1×10^−4 1/s | 0.004173±1.1×10^−4 1/s | 738 | 76.33 ± 3.4 | 0.06336 ± 0.0042 | 173 | – | redshift | – | IC50 ([4]; […] ATCI, PBS 200 mM pH 7.7, 37°C, mean ± SEM (n = 3), read-out: IC50): 90 ± 1 µM |
| C[C@@H]1O[C@@H](OC[C@H]2O[C@@H](Oc3c(-c4ccc(O)c(O)c4)oc4cc(O)cc(O)c4c3=O)[C@H](O)[C@@H](O)[C@@H]2O)[C@H](O)[C@H](O)[C@H]1O [Rutin hydrate, rutin hydrate] | 0 | 8.8±0.056 | 40.7±0.27 | 50.5±0.72 | 0.004468±1.6×10^−4 1/s | 0.002058±1.6×10^−4 1/s | 1110 | 11.33 ± 0.25 | 0.04254 ± 0.0013 | 1180 | 1900 ± 90 | redshift | – | – |
| Cn1c(=O)c2c(ncn2C)n(C)c1=O [Caffeine, caffeine, reference compound] | – | – | – | – | – | – | – | – | – | – | 380 ± 15 | – | – | Kd (immobilized AChE [3]; KD Affinity, affinity fit): 7700 µM; Kd (immobilized AChE [3]; KD Kinetics, two-state model): 17.4 µM |
| C[N+](C)(C)CCOC(N)=O [Carbachol, carbachol, reference compound] | 2.6±0.016 | 4.0±0.02 | 42.4±0.38 | 51.0±0.69 | 0.001509±2.6×10^−4 1/s | 0.001298±1.1×10^−4 1/s | 1150 | 101000 ± 9700 | 0.05155 ± 0.0041 | 0.236 | 210 ± 15 | no change | increase in α-helix and a decline in β-sheets | – |
| O.Oc1cc(O)c2c(c1)O[C@H](c1ccc(O)c(O)c1)[C@@H](O)C2 [catechin] | – | – | – | – | – | – | – | – | – | – | – | – | – | IC50 (AChE [1]; Catechin isolated from Dasiphora fruticosa, read-out: IC50): 1040 µM; IC50 (AChE [1]; catechin isolated from Eugenia dysenterica): 42.39 µg/mL |
| CC(=O)SCC[N+](C)(C)C.[I-] [ATCI, acetylthiocholine iodide, reference compound] | 0 | 5.9±0.035 | 42.8±0.39 | 51.3±0.70 | 12440 ± 9.6e-05 s⁻¹ | – | 2510 | 76590 ± 12000 | 0.4167 ± 0.13 | 2.23 | – | no change | increase in α-helix and a decline in β-sheets | Molecule 2 ka2 (immobilized AChE [6]): 92910 ± 43000 M⁻¹ s⁻¹; Molecule 2 ka2 (immobilized AChE [6]; [9]): 139500 ± 19000 M⁻¹ s⁻¹; Molecule 2 kd2 (immobilized AChE [6]; [9]): 0.06452 ± 0.0034 s⁻¹; Molecule 2 ka2 (immobilized AChE [6]; pair tannic acid (molecule 1) and ATCI (molecule 2), 1:1): 1.529e+06 ± 3.4e+06 M⁻¹ s⁻¹; Kd (immobilized AChE [6]; pair tannic acid (molecule 1) and ATCI (molecule 2), 1:1, read-out: Molecule 2 KD): 0.00016 µM; Kd (immobilized AChE [6]; read-out: Molecule 2 KD): 0.00989 µM |
| O[C@H]1[C@H]2c3cc4c(cc3CN3CCC(=C[C@@H]1O)[C@H]23)OCO4 [Lycorine hydrochloride, lycorine hydrochloride] | 0 | 7.2±0.045 | 41.6±0.34 | 51.2±0.72 | – | 0.02658 ± 0.0061 s⁻¹ | – | 131.5 ± 6.3 | 0.3564 ± 0.011 | – | – | increase in the intensity at 415 nm | increase of α-helix | – |
| O=c1c(O)c(-c2ccc(O)c(O)c2)oc2cc(O)cc(O)c12 [Quercetin, quercetin] | 1.0±0.006 | 3.1±0.010 | 42.8±0.39 | 53.2±0.75 | 0.006822±3.4×10^−4 1/s | 0.004964±2.1×10^−4 1/s | – | 117.6 ± 4.3 | 0.05923 ± 0.0028 | – | – | redshift | reduction in α-helix with an increase in β-sheets | – |
